The values below come from patent US9427398B2, “Parenteral solutions containing metolazone” (Academic Pharmaceuticals Incorporated, priority 2008, dated 2016).

In one data set the test system is Sprague-Dawley male rats. Nature of the data set: Diuretic action of parenteral formulations, intraperitoneal administration in rats (24 h urine volume and Na+). The format is in vivo, rat. To be noted: for urine output: 24 h urine, n=6, mean±SD; for urine volume voided over 24 hours compared with placebo: intraperitoneal, furosemide 2, 4, 6 mg/kg (P≦0.01), metolazone 2 mg/kg in 2 different formulations. Here is the method: Sprague-Dawley male rats (400 to 500 g) were used for the in vivo experiments. The rats were housed at a controlled temperature (22° C.), fed regularly and had free access to water. Rats were divided into 7 groups with 6 animals per group for the purposes of the study. The rats were deprived of food and water for 24 hours before beginning the study. After this fasting period, normal saline ([…]) was given by oral route. […] All rats were placed in metabolic cages for urine collection. Urine was collected for 24 hours after injection, and the volume measured and the (Na^+) concentration in urine were determined using an ion-specific electrode method, NOVA CRT (NOVA Biomedical, Waltham, Mass.) All data are presented as mean±SD of n observations. For statistical comparison, one-way analysis or variance ANOVA or Student t test was employed. A two-sided P value≦0.05 was considered significant.

For data set [1] the following is noted: cited from earlier work.

In the case of `Cc1ccccc1N1C(=O)c2cc(S(N)(=O)=O)c(Cl)cc2NC1C` (stereo not shown) [Metolazone, 7 chloro-1,2,3,4-tetrahydro-2-methyl-3-(-2-methylphenyl)-4-oxo-6-quinazoline sulfonamide], in the data set with Sprague-Dawley male rats (2 mg/kg intraperitoneally), the urine output is 16 ± 3 mL/day. The “urine volume voided over 24 hours compared with placebo” value in the data set on Sprague-Dawley male rats is recorded as “greater in each instance”. Besides, the solubility in water result in data set [1] was “sparingly soluble”.
In the case of `NS(=O)(=O)c1cc(C(=O)O)c(NCc2ccco2)cc1Cl` [Furosemide, furosemide], the results for the urine output with Sprague-Dawley male rats (2 mg/kg intraperitoneally), in the data set on Sprague-Dawley male rats (4 mg/kg intraperitoneally) and with Sprague-Dawley male rats (6 mg/kg intraperitoneally) were 9 ± 1 mL/day, 14 ± 2 mL/day and 17 ± 2 mL/day, respectively. For the same compound, the “urine volume voided over 24 hours compared with placebo” value with Sprague-Dawley male rats is “significantly greater”.
